According to ChEMBL document CHEMBL1146925 (Bioorg Med Chem Lett, 2006):

System: Liver microsomes
Assay: Metabolic stability in human liver microsomes
Assay type: ADME, Microsome
Conditions: not given

SMILES | Stability [%]
Cc1ccn(CCCCN2CCN(c3cc(C(F)(F)F)nc(C(C)(C)C)n3)CC2)c(=O)c1 | > 97

Target: D(3) dopamine receptor (Homo sapiens, UniProt P35462)
Assay: Binding affinity to cloned human dopamine D3 receptor
Conditions: not given

D(3) dopamine receptor, sequence (P35462 whole entry): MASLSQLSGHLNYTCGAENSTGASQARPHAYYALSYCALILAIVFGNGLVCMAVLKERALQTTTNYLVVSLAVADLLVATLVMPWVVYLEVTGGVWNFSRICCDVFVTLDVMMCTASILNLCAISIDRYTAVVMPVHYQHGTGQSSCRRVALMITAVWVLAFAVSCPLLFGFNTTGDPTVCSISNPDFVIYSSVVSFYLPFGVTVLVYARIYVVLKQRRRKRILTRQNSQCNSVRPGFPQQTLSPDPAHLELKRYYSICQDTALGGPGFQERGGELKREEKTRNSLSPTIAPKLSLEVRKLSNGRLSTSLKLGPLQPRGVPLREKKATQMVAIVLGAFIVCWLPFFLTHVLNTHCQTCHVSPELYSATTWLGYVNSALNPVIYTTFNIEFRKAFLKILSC

SMILES | Ki [nM]
CC(C)(C)c1nc(N2CCN(CCCCn3cccc(C(F)(F)F)c3=O)CC2)cc(C(F)(F)F)n1 | 9.3
CCN(Cc1ccccc1)C(=O)NCCCCN1CCN(c2cc(C(F)(F)F)nc(C(C)(C)C)n2)CC1 | 8.3
CC(C)(C)c1nc(N2CCN(CCCCNC(=O)CCc3ccccc3)CC2)cc(C(F)(F)F)n1 | 1.6
CC(C)(C)c1nc(N2CCN(CCCCn3cc(Cl)ccc3=O)CC2)cc(C(F)(F)F)n1 | 32.2
CC(C)(C)NC(=O)NCCCCN1CCN(c2cc(C(F)(F)F)nc(C(C)(C)C)n2)CC1 | 4
CC(C)(C)c1nc(N2CCN(CCCCCC(=O)NCc3ccccc3)CC2)cc(C(F)(F)F)n1 | 6.2
CC(C)(C)c1nc(N2CCN(CCCCn3ccc(O)cc3=O)CC2)cc(C(F)(F)F)n1 | 1.1
CC(C)(C)c1nc(N2CCN(CCCCNC(=O)NCC3CCCCC3)CC2)cc(C(F)(F)F)n1 | 6.7
CCN(CC)C(=O)NCCCCN1CCN(c2cc(C(F)(F)F)nc(C(C)(C)C)n2)CC1 | 0.9
CC(C)(C)c1nc(N2CCN(CCCCNC(=O)NCCc3ccccc3)CC2)cc(C(F)(F)F)n1 | 7.2
CC(C)(C)c1nc(N2CCN(CCCCNC(=O)Nc3ccccc3)CC2)cc(C(F)(F)F)n1 | 3.2
Cc1cccc(=O)n1CCCCN1CCN(c2cc(C(F)(F)F)nc(C(C)(C)C)n2)CC1 | 12.1
CC(C)(C)c1nc(N2CCN(CCCCn3ccc(C(F)(F)F)cc3=O)CC2)cc(C(F)(F)F)n1 | 11.4
CC(C)(C)c1nc(N2CCN(CCCCNC(=O)NCc3ccccc3)CC2)cc(C(F)(F)F)n1 | 2.7
CC(C)(C)CNC(=O)NCCCCN1CCN(c2cc(C(F)(F)F)nc(C(C)(C)C)n2)CC1 | 5.5
CC(C)(C)c1nc(N2CCN(CCCCn3cc(C(F)(F)F)ccc3=O)CC2)cc(C(F)(F)F)n1 | 35.7

Target: D(2) dopamine receptor (Homo sapiens, UniProt P14416)
Assay: Binding affinity to cloned human dopamine D2 receptor
Conditions: not given

D(2) dopamine receptor, sequence (P14416 whole entry): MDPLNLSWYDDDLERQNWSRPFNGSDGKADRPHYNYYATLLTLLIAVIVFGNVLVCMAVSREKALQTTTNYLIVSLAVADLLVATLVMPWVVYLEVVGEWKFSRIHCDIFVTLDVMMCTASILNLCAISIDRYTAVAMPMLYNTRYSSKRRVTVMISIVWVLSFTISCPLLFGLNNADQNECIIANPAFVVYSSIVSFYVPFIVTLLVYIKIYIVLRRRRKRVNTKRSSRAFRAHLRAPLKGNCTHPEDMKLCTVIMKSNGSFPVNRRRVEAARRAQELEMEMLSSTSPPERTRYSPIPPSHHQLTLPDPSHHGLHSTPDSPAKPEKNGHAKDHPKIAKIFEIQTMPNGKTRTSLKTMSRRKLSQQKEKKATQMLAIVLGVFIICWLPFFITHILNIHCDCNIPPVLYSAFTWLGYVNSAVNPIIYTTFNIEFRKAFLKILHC

SMILES | Ki [nM]
CC(C)(C)c1nc(N2CCN(CCCCn3cccc(C(F)(F)F)c3=O)CC2)cc(C(F)(F)F)n1 | 409
CC(C)(C)c1nc(N2CCN(CCCCn3ccc(C(F)(F)F)nc3=O)CC2)cc(C(F)(F)F)n1 | 936
CCN(Cc1ccccc1)C(=O)NCCCCN1CCN(c2cc(C(F)(F)F)nc(C(C)(C)C)n2)CC1 | 212
CC(C)(C)c1nc(N2CCN(CCCCNC(=O)CCc3ccccc3)CC2)cc(C(F)(F)F)n1 | 244
CC(C)(C)c1nc(N2CCN(CCCCn3cc(Cl)ccc3=O)CC2)cc(C(F)(F)F)n1 | 128
CC(C)(C)NC(=O)NCCCCN1CCN(c2cc(C(F)(F)F)nc(C(C)(C)C)n2)CC1 | 65.8
COc1cccn(CCCCN2CCN(c3cc(C(F)(F)F)nc(C(C)(C)C)n3)CC2)c1=O | 168
CC(C)(C)c1nc(N2CCN(CCCCCC(=O)NCc3ccccc3)CC2)cc(C(F)(F)F)n1 | 174
Cc1ccn(CCCCN2CCN(c3cc(C(F)(F)F)nc(C(C)(C)C)n3)CC2)c(=O)c1 | 62.6
CC(C)(C)c1nc(N2CCN(CCCCn3ccc(O)cc3=O)CC2)cc(C(F)(F)F)n1 | 25.5
CC(C)(C)c1nc(N2CCN(CCCCNC(=O)NCC3CCCCC3)CC2)cc(C(F)(F)F)n1 | 159
CCN(CC)C(=O)NCCCCN1CCN(c2cc(C(F)(F)F)nc(C(C)(C)C)n2)CC1 | 17.3
CC(C)(C)c1nc(N2CCN(CCCCn3ccc(-c4ccccc4)cc3=O)CC2)cc(C(F)(F)F)n1 | 527
CC(C)(C)c1nc(N2CCN(CCCCNC(=O)NCCc3ccccc3)CC2)cc(C(F)(F)F)n1 | 234
CC(C)(C)c1nc(N2CCN(CCCCNC(=O)Nc3ccccc3)CC2)cc(C(F)(F)F)n1 | 59.1
Cc1cccc(=O)n1CCCCN1CCN(c2cc(C(F)(F)F)nc(C(C)(C)C)n2)CC1 | 195
CC(C)(C)c1nc(N2CCN(CCCCn3ccc(C(F)(F)F)cc3=O)CC2)cc(C(F)(F)F)n1 | 231
CC(C)(C)c1nc(N2CCN(CCCCNC(=O)NCc3ccccc3)CC2)cc(C(F)(F)F)n1 | 137
CC(C)(C)CNC(=O)NCCCCN1CCN(c2cc(C(F)(F)F)nc(C(C)(C)C)n2)CC1 | 91.3
CC(C)(C)c1nc(N2CCN(CCCCn3cc(C(F)(F)F)ccc3=O)CC2)cc(C(F)(F)F)n1 | 399
Cc1cccn(CCCCN2CCN(c3cc(C(F)(F)F)nc(C(C)(C)C)n3)CC2)c1=O | 171

System: Liver microsomes
Assay: Metabolic stability in rat liver microsomes
Assay type: ADME, Microsome
Conditions: not given

SMILES | Stability [%]
Cc1ccn(CCCCN2CCN(c3cc(C(F)(F)F)nc(C(C)(C)C)n3)CC2)c(=O)c1 | 74

Species: Canis familiaris
Assay: Metabolic stability in dog liver microsomes
Assay type: ADME, Canis lupus familiaris
Conditions: not given

SMILES | Stability [%]
Cc1ccn(CCCCN2CCN(c3cc(C(F)(F)F)nc(C(C)(C)C)n3)CC2)c(=O)c1 | 59

System: not listed separately
Assay: Permeability across Caco-2 cell membrane at pH 7.2
Assay type: ADME, cell-based
Conditions: human, Caco-2, pH 7.2; read-out: permeability

SMILES | Papp [×10⁻⁶ cm/s]
Cc1ccn(CCCCN2CCN(c3cc(C(F)(F)F)nc(C(C)(C)C)n3)CC2)c(=O)c1 | 5

System: not listed separately
Assay: Brain to plasma ratio in rat at 2 mg/kg, iv and 10 mg/kg, po
Conditions: not given

SMILES | Kp
Cc1ccn(CCCCN2CCN(c3cc(C(F)(F)F)nc(C(C)(C)C)n3)CC2)c(=O)c1 | 3.7

System: not listed separately
Assay: Oral bioavailability in rat at 2 mg/kg, iv and 10 mg/kg, po
Assay type: ADME, organism-based
Conditions: in vivo

SMILES | bioavailability [%]
CC(C)(C)c1nc(N2CCN(CCCCNC(=O)CCc3ccccc3)CC2)cc(C(F)(F)F)n1 | < 10
Cc1ccn(CCCCN2CCN(c3cc(C(F)(F)F)nc(C(C)(C)C)n3)CC2)c(=O)c1 | 37
